Series [1] has as its system SARS-CoV-2 strain BavPat1. In words: microbe, parasite or virus in culture. Conditions: Severe acute respiratory syndrome coronavirus 2, Vero C1008, 48 h.
In series [2] the test system is SARS-CoV-2 strain BavPat1. In words: microbe, parasite or virus in culture. The class given is cell-based. Conditions: Severe acute respiratory syndrome coronavirus 2; VeroE6-TMPRSS2+ cells, pilot study.
In series [3] the test system is SARS-CoV-2 strain BavPat1. As to conditions: Vero-E6 cells.
Series [4] in a line: in vitro. As to conditions: human.
The nature of series [5]: in vitro. As to conditions: African green monkey.
The subject of series [6] is SARS-CoV-2 strain BavPat1. The series can be described thus: SARS-CoV-2 replication inhibition in Caco-2 cells (viral RNA RT-qPCR). Conditions: for SI = CC50/EC50: Caco-2 cells; for pEC50 / EC90: Severe acute respiratory syndrome coronavirus 2, Caco-2, 48 h.
Series [7] in a line: Cytotoxicity in VeroE6 cells (CellTiter Blue). Conditions: African green monkey.

pEC50: −log10 of the molar value. Like-named read-outs stand apart in the source and are kept apart here. Non-standard residues stand in square brackets, D forms with d. Residues, ends and D or L forms follow the SMILES beside them. *: point of attachment. Nva = CCC[C@H](N)C(=O)O; Cbz = O=C(OCc1ccccc1)*

For orientation: pEC50 means the negative decadic logarithm of the EC50, by convention in mol/L. Broadly, the EC90 is the point of the concentration-response curve where the effect stands at 90%. On to `CC(C)C[C@@H](C=O)NC(=O)[C@H](CC(C)C)NC(=O)[C@H](CC(C)C)NC(=O)OCc1ccccc1` [Compound 1] (Cbz-Leu-Leu-Leu-aldehyde), for which the pEC50 in series [1] was 6.92; in series [2], 6.07; in series [6], 6.92. For the same compound, the EC90 in series [1] is 500 to 1000 nM; in series [2], 3300 nM; in series [6], 130 nM. In addition, the entries for the “SI = CC50/EC50” value in series [3] and in series [6] were 22.8 and 1.89, respectively. For the same compound, the “balance between virus inhibition and cytotoxicity (selectivity index), in words” value in series [3] is “advantageous balance”. For the same compound, the figures for the CC50 at 2 days in “in vitro [4]” and in “in vitro [5]” were 230 nM and 2790 nM, respectively.

Turning to `CCC(CC)COC(=O)[C@H](C)N[P@](=O)(OC[C@H]1O[C@@](C#N)(c2ccc3c(N)ncnn23)[C@H](O)[C@@H]1O)Oc1ccccc1` [Rem, Remdesivir, reference compound], in series [1], the pEC50 is 5.66. The EC90 in series [1] turned out to be 2450 nM; in series [2], 1660 nM.

For `CC(C)C[C@@H](C=O)NC(=O)[C@H](CC(C)C)NC(=O)[C@H](Cc1ccccc1)NC(=O)OCc1ccccc1` [Compound 4] (Cbz-Phe-Leu-Leu-aldehyde), in series [1], the pEC50 was 6.89 and the EC90 came to 600 nM. In series [2], this compound gave a pEC50 of under 5.70 and an EC90 of over 2000 nM. Besides, in series [3], the “SI = CC50/EC50” value was 49.69; the “balance between virus inhibition and cytotoxicity (selectivity index), in words” value is recorded as “best selectivity index”. The same compound returned a CC50 at 2 days in “in vitro [5]” of 6460 nM.

For `CC(=O)N[C@@H](CC(C)C)C(=O)N[C@@H](CC(C)C)C(=O)N[C@H](C=O)CC(C)C` [Compound 3] (Ac-Leu-Leu-Leu-aldehyde), in series [1], the pEC50 was over 6.52 and the EC90 came to 1570 nM. In series [3], the “SI = CC50/EC50” value is over 45.2; the “balance between virus inhibition and cytotoxicity (selectivity index), in words” value is “best selectivity index”. The compound further registered a CC50 at 2 days in the series “in vitro [5]” of 13600 nM.

Regarding `CC(C)C[C@H](NC(=O)[C@H](Cc1ccccc1)NC(=O)c1cnccn1)B(O)O` [Compound 9, reference compound], in series [1], the negative logarithm of the EC50 (pEC50) was 5.98 and the 90% effect level (EC90) was put at 21500 nM. Further, in series [3], the “SI = CC50/EC50” value is listed as 0.22; the “balance between virus inhibition and cytotoxicity (selectivity index), in words” value is given as “not favourable”. In “in vitro [5]”, this compound came in with a CC50 at 2 days of 230 nM.

In series [1], `CC(C)C[C@@H](C=O)NC(=O)[C@H](CC(C)C)NC(=O)[C@H](CC(C)C)NC(=O)c1cnccn1` [Compound 7] had a pEC50 of 6.17 and an EC90 of 1930 nM. Moreover, in series [3], the “SI = CC50/EC50” value is reported as over 2.94; the “balance between virus inhibition and cytotoxicity (selectivity index), in words” value is listed as “advantageous balance”. In addition, the CC50 at 2 days in series [7] is over 2000 nM.

Turning to `CC(C)C[C@H](NC(=O)OCc1ccccc1)C(=O)N[C@@H](CC(C)C)C(=O)N[C@H](C=O)Cc1ccccc1` [Compound 5] (Cbz-Leu-Leu-Phe-aldehyde), the values for the pEC50 in series [1], in series [2] and in series [6] were 7.22, 5.75 and 7.05, respectively. In addition, the EC90 in series [1] came out at 1930 nM; in series [2], 2300 nM; in series [6], 470 nM. The results for the “SI = CC50/EC50” value in series [3] and in series [6] were over 33.3 and 5.13, respectively. Also, the “balance between virus inhibition and cytotoxicity (selectivity index), in words” value in series [3] is listed as “best selectivity index”. The CC50 at 2 days in the series “in vitro [4]” is 480 nM; in the series “in vitro [5]”, over 2000 nM.

In series [1], `CC(C)C[C@@H](C=O)NC(=O)[C@H](Cc1ccccc1)NC(=O)[C@H](CC(C)C)NC(=O)OCc1ccccc1` [Compound 6] (Cbz-Leu-Phe-Leu-aldehyde) gave a pEC50 of 6.51 and an EC90 of 11200 nM. In series [2], this compound had a pEC50 of 6.85 and an EC90 of over 2000 nM. For the same compound, in series [3], the “SI = CC50/EC50” value stood at 12.92; the “balance between virus inhibition and cytotoxicity (selectivity index), in words” value is recorded as “best selectivity index”. In the series “in vitro [5]”, this compound had a CC50 at 2 days of 1680 nM.

In the case of `CCC[C@@H](C=O)NC(=O)[C@H](CC(C)C)NC(=O)[C@H](CC(C)C)NC(=O)OCc1ccccc1` [Compound 2] (Cbz-Leu-Leu-[Nva]-aldehyde), in series [1], the pEC50 was 7.22 and the EC90 was 160 nM. Also, in series [3], the “SI = CC50/EC50” value is listed as over 33.3; the “balance between virus inhibition and cytotoxicity (selectivity index), in words” value is on record as “best selectivity index”. The compound further gave a CC50 at 2 days in the series “in vitro [4]” of 450 nM. The CC50 at 2 days in “in vitro [5]” is over 2000 nM. In series [6], the “SI = CC50/EC50” value came out at 3.50, the pEC50 is 6.89 and it took 630 nM to reach the 90% level (EC90).

For the compound `CC(C)C[C@@H](C=O)NC(=O)[C@H](CC(C)C)NC(=O)[C@H](CC(C)C)NC(=O)Cc1ccc(F)cc1F` [Compound 8], in series [1], the pEC50 is 6.28 and the 90% effect level (EC90) was put at 1280 nM. In series [3], the “SI = CC50/EC50” value is on record as over 3.84; the “balance between virus inhibition and cytotoxicity (selectivity index), in words” value is “advantageous balance”. Also, the CC50 at 2 days in “in vitro [5]” is over 2000 nM.

The values are drawn from patent US20240009263A1, “COMPOUNDS FOR TREATING ENVELOPED VIRUS INFECTIONS” (priority 2020, published 2024).
